Columns and labels:
[1] = molecular target: T1, MIF (Homo sapiens, UniProt P14174); experiment: MIF dopachrome tautomerase activity assay with Compound 1b as MIF-substrate; format: biochemical; conditions: test compound used in place of the MIF-substrate
T1 construct: made in house; host or cells: E. coli BL21(DE3), pET11b (inferred from Section 6; the Section 8 text says only 'recombinant')
T1 sequence (P14174 2-115 limits assumed): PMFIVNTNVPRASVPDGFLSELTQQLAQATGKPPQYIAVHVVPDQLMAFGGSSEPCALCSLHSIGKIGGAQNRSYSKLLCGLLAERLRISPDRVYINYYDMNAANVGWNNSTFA
Excerpt: The general method of performing an assay for MIF dopachrome tautomerase activity, described in more detail below, begins with the oxidation of a percursor of the MIF-substrate (e.g., DOPA-related Compound 1a [L-3-(3,4-dihydroxyphenyl) alanine methyl ester] above) and, if required, the similar oxidation of precursors of the test inhibitors (e.g., the DOPA-related Compounds 2a [L-3-(3,4-dihydroxyphenyl)-2-methyl alanine], 3a [D/L-3-(3,4-dihydroxyphenyl)-2-methyl alanine], 4a [L-3-(3,4-dihydroxyphenyl)-2-methyl alanine methyl ester] and 5a [D/L-3-(3,4-dihydroxyphenyl)-2 methyl alanine methyl ester] above). This oxidation of each precursor compound with sodium periodate generates the corresponding orange-colored dopachrome derivative; specifically, a preferred MIF-substrate (Compound 1B above) and the test inhibitors (Compounds 2b, 3b, 4b, and 5b above). Upon addition of MIF, the MIF-substrate (Compound 1b [L-3,5-dihydro-6-hydroxy-5-oxo-2H-indole-2-carboxylic acid methyl ester]) undergoes tautomerization resulting in a colorless product. In the presence of the test inhibitors (Compounds 2b, 3b, 4b, and 5b), decolorization of MIF-substrate (Compound 1b) was retarded. Test compounds 2b, 3b, 4b, and 5b themselves were unreactive in this tautomerization reaction; that is, they were not tautomerized and correspondingly decolorized by MIF dopachrome tautomerase activity if they were substituted for the MIF-substrate in this assay method.
In a preferred MIF dopachrome tautomerase activity assay procedure, the DOPA-related precursors (Compounds 1a, 2a, 3a, 4a, and 5a above) are prepared as 10 mM stock solutions in Assay Buffer (10 mM sodium phosphate, pH 6.0). About 10 minutes before the tautomerization assay, 1.0 ml of each stock solution was diluted with 8 ml of Assay Buffer, and 1.0 ml of sodium periodate stock solution (20 mM in water) was added to initiate the oxidation of the diluted precursors, thus generating each respective dopachrome derivative (i.e., Compounds 1b, 2b, 3b, 4b, and 5b) at a final concentration of 1 mM. To perform the actual tautomerization assay, 0.5 ml of the 1 mM solution of the MIF-substrate (i.e., Compound 1b) was mixed with 0.5 ml of Assay Buffer (no inhibitor control reaction) or 0.5 ml of the 1 mM dilution of the test inhibitor (e.g., Compounds 2b, 3b, 4b, or 5b), followed by addition of 10 μl of recombinant […] solution from a 20 μg/ml stock.

[2] = molecular target: recombinant human MIF (Homo sapiens, UniProt P14174); experiment: biochemical; conditions: read-out: % Inhibition of MIF tautomerase activity
[3] = tested on: RAW 264.7 macrophages; experiment: MIF-induced secretion of TNFα by mouse macrophages (L929 cell cytotoxicity readout); format: cell-based, murine
Protocol: TNFα production was quantitated in MIF-conditioned RAW 264.7 macrophage supernatants by L929 cell cytotoxicity as described previously (Wolpe et al., 1988, J. Exp. Med. 167: 570). RAW 264.7 macrophages were resuspended in RPMI/10% FBS, plated at 1×10^6 cells/ml, incubated for 3 hours at 37° C. in a humidified atmosphere with 5% CO2, and washed twice with RPMI/1% FBS. Cells were incubated for 12-14 hours with various doses of MIF diluted in RPMI/1% FBS. At the end of each experiment, cell culture media were collected, centrifuged (10 min at 800 g), and supplemented with 1 mM PMSF. MIF-induced TNFα activity was measured immediately afterwards.

[4] = Tautomerase activity of altered or glycated MIF proteins; format: biochemical
Protocol: A 1 mM solution of L-DOPA methyl ester was prepared in Reaction Buffer (10 mM sodium phosphate, pH 6, containing 0.5 mM EDTA). L-DOPA methyl ester was oxidized to colored L-dipachrome methyl ester by adding 10% (v/v) of a 20 mM aqueous solution of potassium periodate, following a 1:2 dilution with Reaction Buffer.
The test compound, reduced glutathione, was added in concentrations of 0.1 mM, 0.5 mM, 1.0 mM, and 2.0 mM to separate cuvettes containing the substrate solution. Approximately 100 ng of purified recombinant human MIF was added to each cuvette. […]
Purified recombinantly-produced human MIF protein was glycated by incubation in aqueous buffer in the presence of 0.5 M glucose, typically for 6 weeks in the dark at 37° C. under a nitrogen atmosphere to ensure complete glycation of susceptible residues (although other spontaneous glycation conditions will serve to glycate the protein without departing from the essence of the invention) and tested for D-dopachrome tautomerase activity by the method of Section 7 or Section 8. […] The AGE-MIF was recovered and analyzed by matrix-assisted laser desorption ionization mass spectroscopy and determined to have a mass consistent with three-fold Amadori product modification of the protein; that is, there was a mass excess of approximately 3×162 (the mass excess of a single Amadori product). […]

[5] = tested on: RAW 264.7 macrophages; experiment: MIF-induced nitric oxide production in macrophages (Griess reagent); format: cell-based, murine; conditions: 1 μg/ml, IFN-γ-primed RAW 264.7 macrophages
Protocol: Nitric oxide (NO) production was quantitated in MIF-conditioned RAW 264.7 and thioglycollate-elicited peritoneal exudate macrophage supernatants by measuring nitrite and nitrate content with the Griess reagent. RAW 264.7 macrophages were prepared and conditioned as described above. In some experiments, cells were incubated for 1 h with recombinant murine interferon-γ (IFN-γ) (100 IU/ml) (Boehringer-Mannheim, Indianapolis, Ind.) prior to the addition of MIF. Thioglycollate-elicited peritoneal exudate macrophages were obtained from BALB/c mice that were injected intra-peritoneally 3-4 days previously with 2 ml of sterile thioglycollate broth. Cells were harvested under strict aseptic conditions by lavage of the peritoneal cavity with 5 ml of an ice-chilled 11.6% sucrose solution. After centrifugation (10 min at 800 g), cells were resuspended in RPMI/10% FBS and plated at a density of 2×10^6 cells/ml. After 3 h of incubation, non-adherent cells (i.e. PMNs, lymphocytes) were removed with RPMI/1% FBS and the remaining adherent cells conditioned with MIF as described for RAW 264.7 cells. Trace concentrations of contaminating LPS were neutralized by incubating MIF (1 and 10 μg/ml in cell culture media) with polymyxin B at a concentration of 10 and 100 ng/ml, respectively, for 30 min at room temperature under sterile conditions. […]

Molecule: CC1(C(=O)O)CC2=CC(=O)C(O)=CC2=N1 [Compound 2b, L-3,5-dihydro-6-hydroxy-2-methyl-5-oxo-2H-indole-2-carboxylic acid]
- Tautomerization by MIF when substituted for the MIF-substrate [1]: unreactive

Molecule: CC1(C(=O)O)CC2=CC(=O)C(O)=CC2=N1 [Compound 3b, D/L-3,5-dihydro-6-hydroxy-2-methyl-5-oxo-2H-indole-2-carboxylic acid]
- Tautomerization by MIF when substituted for the MIF-substrate [1]: unreactive

Molecule: COC(=O)C1(C)CC2=CC(=O)C(O)=CC2=N1 [Compound 4b, L-3,5-dihydro-6-hydroxy-2-methyl-5-oxo-2H-indole-2-carboxylic acid methyl ester]
- Tautomerization by MIF when substituted for the MIF-substrate [1]: unreactive

Molecule: COC(=O)C1(C)CC2=CC(=O)C(O)=CC2=N1 [Compound 5b, D/L-3,5-dihydro-6-hydroxy-2-methyl-5-oxo-2H-indole-2-carboxylic acid methyl ester]
- Tautomerization by MIF when substituted for the MIF-substrate [1]: unreactive

Molecule: N[C@@H](CCC(=O)N[C@@H](CS)C(=O)NCC(=O)O)C(=O)O [Glutathione, glutathione]
- inhibition at 100 µM [2]: 14%
- inhibition at 500 µM [2]: 69%
- inhibition at 1000 µM [2]: 95%
- inhibition at 2000 µM [2]: 100%

B1: rhuMIF: recombinant human MIF expressed in E. coli from pET11b, native amino-terminus (protein, UniProt P14174 2-115, looked up)
Macrophage migration …: T1 sequence (P14174 2-115 limits assumed)
- Secretion of TNFα induced by MIF ([3]; MIF 0.1 μg/ml): 2.9 ± 2.4 ng/mL
- Secretion of TNFα induced by MIF ([3]; MIF 1 μg/ml): 3.4 ± 2.8 ng/mL
- Secretion of TNFα induced by MIF ([3]; MIF 10 μg/ml): 3.9 ± 2.8 ng/mL
- MIF tautomerase activity of expressed protein ([4]; protein expressed in E. coli): highly active
- NO production activity relative to rmuMIF [5]: approximately 4 fold

B2: AGE-MIF: recombinant human MIF glycated by incubation with 0.5 M glucose; three-fold Amadori product modification (protein, UniProt P14174 2-115, looked up)
Macrophage migration …: T1 sequence (P14174 2-115 limits assumed)
modifications: advanced glycation end-product modified
- D-dopachrome tautomerase activity of glycated MIF ([4]; human MIF incubated with 0.5 M glucose, typically 6 weeks at 37° C., method of Section 7 or Section 8): no D-dopachrome tautomerase activity

Reference: patent US20030105014A1, “Screening assay for the identification of inhibitors of macrophage migration inhibitory factor” (priority 1996, published 2003)
